Reference: patent publication US10111431B2, “Application of biofilm formation inhibiting compounds enhances control of citrus canker” (priority 2013, dated 2018)
≈ marks a conversion by molar mass, not a printed value.

Key:
[1] = tested on: X. citri subsp. citri strain 306; test: Determination of minimum inhibitory concentrations (MICs) in NB medium, 96-well plate; format: cell-based, Xanthomonas citri subsp. citri; settings: 48 h
Protocol: Xac strain 306 was grown in NB at 28° C. with shaking at 200 rpm for 7 h. The cultures were standardized to an OD600 of 0.03 (5×10^7 colony forming unit (CFU)/mL) in NB and then aliquoted into wells of a 96-well plate, 190 μL per well. The initial test concentrations of the compounds were diluted (1:20) in the culture (10 μl of compound in 190 μl of culture) and incubated at 28° C. under stationary conditions. The cultures were monitored at 24 and 48 h at OD600, and the lowest concentration resulting in no growth after 48 h compared to the control samples was defined as the MIC for Xac strain 306. All determinations were conducted in eight replicate wells and repeated three times.

[2] = tested on: Xac 306 biofilm cells; test: Resistance of Xac biofilm cells to copper, cell viability assay in glass tubes; format: cell-based, Xanthomonas citri subsp. citri; settings: CuSO4 (1.0 mM) alone, 24 h
Protocol: The level of copper resistance of biofilms was evaluated using a cell viability assays. Briefly, Xac biofilms were prepared using NB with stationary incubation in glass tubes as described above. After 48 h-incubation, the cultures were removed and bacterial cells attached to the tubes were gently washed three times with SDW. One milliliter of fresh NB with CuSO4 (1.0 mM), D-leucine (10 mM) or IAN (100 μg/mL), or a combination of these compounds was added to each tube. NB alone was used as control. Tubes were kept at room temperature for 24 h and shaken vigorously for 5 min. The suspensions were diluted in 10-fold series, and 10 μL of each dilution spotted in triplicate on NA plate. Plates were incubated at 28° C. for 48 to 72 h prior to assessing bacterial growth. Colonies that grew near the dilution end-point were counted and bacterial populations in the initial suspensions prior to dilution were calculated. Each treatment compromises four replicates and the experiment repeated three times.

[3] = tested on: Xac 306 on grapefruit leaves; test: Plant test in greenhouse, spray inoculation of grapefruit leaves; format: in vivo, Xanthomonas citri subsp. citri
Protocol: The effect of selected biofilm inhibitors on Xac infection/virulence-was investigated using 20-week-old potted grapefruit (Citrus paradise cv. Duncan grapefruit) plants in a quarantine greenhouse at the Citrus Research and Education Center, Lake Alfred, Fla. Copper (CuSO4, 100 μg/mL), D-leucine (10 mM), IAN (100 μg/mL) and a combination of these compounds were individually prepared in 100 ml of SDW. Bacterial inoculum was prepared by growing Xac 306 on NA plates at 28° C. for 48 h, suspending in SDW, adjusting concentration to approximately OD600=0.3 (5×10^8 CFU/mL). The inoculation was performed by a spray method as described previously (Li and Wang, 2012) with modifications. Briefly, the abaxial surfaces of fully expanded, immature leaves of each plant were sprayed with the following treatments: SDW, Xac 306, and Xac 306 combined with CuSO4 (100 μg/mL), D-leucine (10 mM), IAN (100 μg/mL), or a combination of these compounds. Silwett-L77 (silicone-polyether copolymer, Fisher) was added to each treatment at a 0.03% (V/V) final concentration. After inoculation, the plants were covered with plastic bags for 24 h to maintain a high (>90%) relative humidity and then kept in a greenhouse (approximately 60% relative humidity) for symptom development. All inoculations included a minimum of three immature leaves at a similar developmental stage from each plant, and each treatment comprised four plants. The experiments were repeated three times independently. SDW was applied as a negative control, and Xac306 mixed with SDW as positive control. To determine whether the timing of application of biofilm inhibitors in relation to Xac306 affected canker symptom suppression, the biofilm inhibitors were inoculated on leaves 6 h prior to or after inoculation with Xac306.
For bacterial population assays, the leaves of grapefruit plants were inoculated as described above. Two leaf discs randomly selected from each of three inoculated leaves were cut with a cork borer (0.8 cm in diameter) and then ground in 1 mL of SDW. The suspensions were serially diluted and plated on NA plates containing rifamycin. After incubation at 28° C. for 48 h, bacterial colonies were counted and the number of CFU per square centimeter of leaf tissue was calculated. The assays were repeated three times independently.

[4] = tested on: Xac306 biofilm formation; test: Static biofilm formation assay in 96-well polystyrene plates with crystal violet staining; format: cell-based, Xanthomonas citri subsp. citri; settings: 0 to 20 mM for D-leucine and D-serine; 0 to 150 μg/mL for IAN
Protocol: A static biofilm formation assay in 96-well polystyrene plates coupled with CV staining was performed as previously reported with modifications (Li and Wang, 2011). Briefly, a 96-well polystyrene plate (Nunclon surface, Nuncbrand, Denmark) was prepared with 170 μL NB plus 1.0% glucose per well. Aliquots of 20 μL each of the different concentrations of the tested compound were pipetted into eight wells containing 170 μL of NB plus 1.0% glucose. To each of these wells was added 10 μL of the standardized overnight Xac 306 culture (OD600=1.0). Control wells contained NB plus 1.0% glucose and SDW or 0.1% DMSO as a sterility control, or standardized overnight Xac 306 culture as a growth control. The plate was covered by a MicroWell lid (Nunclon), sealed with parafilm to prevent evaporation and incubated at 28° C. for 48 h without shaking. After incubation, the planktonic growth was measured at OD600. To quantify the amount of biofilms formed on the surfaces of the wells, the culture was removed from the wells. After drying, the wells were washed twice with 200 μl of SDW for 5 min, allowed to dry then 200 μl of 0.1% CV added. After 30 minutes, the CV was removed. The wells were washed with excess SDW to remove unbound CV and air dried in an inverted position for 2 h. Afterward, 200 μl of 95% ethanol was added to the wells and incubated for 30 min at room temperature to elute bound CV. The eluted CV was 2-fold diluted in double distilled water and the absorbance at 590 nm was measured. Each data point was averaged from eight replicate wells.

| SMILES | MIC of CuSO4 in the presence of D-leucine and IAN ([1]; D-leucine 10 mM and IAN 100 μg/mL, planktonic cells, NB medium) | MIC of CuSO4 in the presence of D-leucine ([1]; D-leucine 10 mM, planktonic cells, NB medium) | MIC of CuSO4 in the presence of IAN ([1]; IAN 100 μg/mL, planktonic cells, NB medium) | MIC ([1]; compound alone, NB medium, 28° C., stationary, OD600) | viable cells in biofilms [2] | level of canker lesions on sprayed leaves ([3]; D-leucine 10 mM, IAN 100 μg/mL, CuSO4 100 μg/mL) | log reduction in the number of CFU compared to untreated control ([3]; grapefruit leaves, 7 to 28 days after inoculation) | MIC ([1]; Xanthomonas citri) | dose dependence of Xac306 biofilm decrease [4] |
| --- | --- | --- | --- | --- | --- | --- | --- | --- | --- |
| O=S(=O)([O-])[O-].[Cu+2] [CuSO4] | 250 µM | 250 µM | 250 µM | 500 µM | 3×10^7 CFU/mL | less than that sprayed with the pathogen alone | ~1.0 log | – | – |
| N[C@H](CO)C(=O)O [D-serine] | – | – | – | – | – | – | – | 8000 µM (≈ 841 µg/mL) | decreased Xac306 biofilm in a dose-dependent manner |
